Experimental data taken from ChEMBL document CHEMBL5126581, “Chlorinated benzothiadiazines inhibit angiogenesis through suppression of VEGFR2 phosphorylation” (Bioorg Med Chem, 2022).
Active and inactive are the calls of the source. No cut-off for these calls is given here.

Key:
[1] = tested on: HUVEC; experiment: Antiangiogenic activity in HUVEC cells assessed as inhibition of VEGF-induced cell proliferation at 20 uM incubated for 48 hrs by MTT assay relative to control; format: functional; details: Homo sapiens, values are per cent of control
[2] = Cytotoxicity against HEK293 cells assessed as inhibition of cell growth incubated for 72 hrs by MTS assay; format: toxicity, cell-based; details: human
[3] = molecular target: Carbonic anhydrase 1 (Homo sapiens, UniProt P00915); experiment: Inhibition of recombinant human carbonic anhydrase 1 assessed as inhibition constant incubated for 1 hr prior to testing by phenol red based stopped-flow CO2 hydration assay
Chain of Carbonic anhydrase 1 (P00915 whole entry): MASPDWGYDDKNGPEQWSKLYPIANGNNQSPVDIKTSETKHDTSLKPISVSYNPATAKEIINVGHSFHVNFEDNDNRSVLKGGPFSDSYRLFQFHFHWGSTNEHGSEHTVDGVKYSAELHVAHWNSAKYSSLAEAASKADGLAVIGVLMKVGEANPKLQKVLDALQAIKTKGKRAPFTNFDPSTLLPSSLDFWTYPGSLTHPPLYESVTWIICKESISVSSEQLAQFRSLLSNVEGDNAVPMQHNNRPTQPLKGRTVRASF

[4] = molecular target: Carbonic anhydrase 2 (Homo sapiens, UniProt P00918); experiment: Inhibition of recombinant human carbonic anhydrase 2 assessed as inhibition constant incubated for 1 hr prior to testing by phenol red based stopped-flow CO2 hydration assay
[5] = molecular target: Carbonic anhydrase 12 (Homo sapiens, UniProt O43570); experiment: Inhibition of recombinant human carbonic anhydrase 12 assessed as inhibition constant incubated for 1 hr prior to testing by phenol red based stopped-flow CO2 hydration assay
Chain of Carbonic anhydrase 12 (O43570 whole entry): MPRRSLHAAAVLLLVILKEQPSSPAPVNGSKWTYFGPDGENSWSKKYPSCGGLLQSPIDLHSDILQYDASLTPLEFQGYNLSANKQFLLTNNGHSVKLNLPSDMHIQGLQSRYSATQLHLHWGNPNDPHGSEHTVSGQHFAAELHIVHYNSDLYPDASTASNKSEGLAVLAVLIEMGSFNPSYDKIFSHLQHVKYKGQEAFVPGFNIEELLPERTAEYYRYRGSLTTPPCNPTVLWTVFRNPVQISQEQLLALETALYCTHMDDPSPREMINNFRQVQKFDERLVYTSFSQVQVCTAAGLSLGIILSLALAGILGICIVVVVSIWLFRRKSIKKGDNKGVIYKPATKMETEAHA

[6] = molecular target: T1, Vascular endothelial growth factor receptor 2 (Homo sapiens, UniProt P35968); experiment: Inhibition of VEGFR2 phosphorylation in VEGF-induced HUVEC cells assessed as reduction in pVEGFR2 level at 20 uM incubated for 5 mins by Western blot analysis; format: cell-based
T1 sequence (P35968 whole entry): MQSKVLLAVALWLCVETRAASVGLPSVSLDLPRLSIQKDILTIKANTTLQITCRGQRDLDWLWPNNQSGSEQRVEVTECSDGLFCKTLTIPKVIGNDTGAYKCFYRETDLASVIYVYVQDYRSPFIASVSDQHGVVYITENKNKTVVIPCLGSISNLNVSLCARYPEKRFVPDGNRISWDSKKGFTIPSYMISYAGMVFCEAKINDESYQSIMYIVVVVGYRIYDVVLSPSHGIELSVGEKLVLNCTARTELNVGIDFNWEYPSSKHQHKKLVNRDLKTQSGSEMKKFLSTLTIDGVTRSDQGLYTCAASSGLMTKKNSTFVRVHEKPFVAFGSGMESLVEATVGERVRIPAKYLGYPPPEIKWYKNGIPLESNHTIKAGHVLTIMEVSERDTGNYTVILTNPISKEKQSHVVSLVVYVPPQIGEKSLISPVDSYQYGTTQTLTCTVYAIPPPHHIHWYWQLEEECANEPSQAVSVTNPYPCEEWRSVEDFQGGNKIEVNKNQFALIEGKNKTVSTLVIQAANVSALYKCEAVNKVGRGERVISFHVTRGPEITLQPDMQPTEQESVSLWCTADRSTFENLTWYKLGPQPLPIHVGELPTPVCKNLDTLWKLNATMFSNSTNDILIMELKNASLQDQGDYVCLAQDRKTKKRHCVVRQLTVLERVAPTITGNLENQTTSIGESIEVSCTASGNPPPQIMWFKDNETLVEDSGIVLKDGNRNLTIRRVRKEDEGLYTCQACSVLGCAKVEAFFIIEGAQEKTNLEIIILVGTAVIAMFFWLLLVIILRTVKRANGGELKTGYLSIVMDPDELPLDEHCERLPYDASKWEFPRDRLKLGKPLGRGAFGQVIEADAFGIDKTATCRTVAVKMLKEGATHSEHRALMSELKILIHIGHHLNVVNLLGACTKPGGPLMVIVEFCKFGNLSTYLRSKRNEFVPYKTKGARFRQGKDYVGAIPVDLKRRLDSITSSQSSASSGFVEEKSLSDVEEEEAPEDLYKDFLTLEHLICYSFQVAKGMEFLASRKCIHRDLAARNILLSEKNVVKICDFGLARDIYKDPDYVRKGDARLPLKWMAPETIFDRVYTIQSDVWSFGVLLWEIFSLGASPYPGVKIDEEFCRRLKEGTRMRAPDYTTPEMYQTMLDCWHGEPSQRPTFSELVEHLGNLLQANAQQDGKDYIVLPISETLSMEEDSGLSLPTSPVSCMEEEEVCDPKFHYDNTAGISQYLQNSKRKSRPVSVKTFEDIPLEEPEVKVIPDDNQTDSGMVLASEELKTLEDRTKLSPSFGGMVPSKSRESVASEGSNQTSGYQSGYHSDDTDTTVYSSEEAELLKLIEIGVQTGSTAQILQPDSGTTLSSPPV

[7] = molecular target: T1, Vascular endothelial growth factor receptor 2; experiment: Inhibition of VEGFR2 (unknown origin) using poly[Glu:Tyr] (4:1) as substrate at 20 uM incubated for 45 mins by kinase-glo max reagent based luminescence analysis relative to control
[8] = molecular target: T1, Vascular endothelial growth factor receptor 2; experiment: Inhibition of VEGFR2 (unknown origin) using poly[Glu:Tyr] (4:1) as substrate incubated for 45 mins by kinase-glo max reagent based luminescence analysis
[9] = molecular target: Activated CDC42 kinase 1 (Homo sapiens) (UniProt Q07912); experiment: Inhibition of TNK2 (unknown origin) assessed as residual activity at 10 uM incubated for 1 hr by KinomeScan analysis relative to control
Chain of Activated CDC42 kinase 1 (Homo sapiens) (Q07912 whole entry, looked up): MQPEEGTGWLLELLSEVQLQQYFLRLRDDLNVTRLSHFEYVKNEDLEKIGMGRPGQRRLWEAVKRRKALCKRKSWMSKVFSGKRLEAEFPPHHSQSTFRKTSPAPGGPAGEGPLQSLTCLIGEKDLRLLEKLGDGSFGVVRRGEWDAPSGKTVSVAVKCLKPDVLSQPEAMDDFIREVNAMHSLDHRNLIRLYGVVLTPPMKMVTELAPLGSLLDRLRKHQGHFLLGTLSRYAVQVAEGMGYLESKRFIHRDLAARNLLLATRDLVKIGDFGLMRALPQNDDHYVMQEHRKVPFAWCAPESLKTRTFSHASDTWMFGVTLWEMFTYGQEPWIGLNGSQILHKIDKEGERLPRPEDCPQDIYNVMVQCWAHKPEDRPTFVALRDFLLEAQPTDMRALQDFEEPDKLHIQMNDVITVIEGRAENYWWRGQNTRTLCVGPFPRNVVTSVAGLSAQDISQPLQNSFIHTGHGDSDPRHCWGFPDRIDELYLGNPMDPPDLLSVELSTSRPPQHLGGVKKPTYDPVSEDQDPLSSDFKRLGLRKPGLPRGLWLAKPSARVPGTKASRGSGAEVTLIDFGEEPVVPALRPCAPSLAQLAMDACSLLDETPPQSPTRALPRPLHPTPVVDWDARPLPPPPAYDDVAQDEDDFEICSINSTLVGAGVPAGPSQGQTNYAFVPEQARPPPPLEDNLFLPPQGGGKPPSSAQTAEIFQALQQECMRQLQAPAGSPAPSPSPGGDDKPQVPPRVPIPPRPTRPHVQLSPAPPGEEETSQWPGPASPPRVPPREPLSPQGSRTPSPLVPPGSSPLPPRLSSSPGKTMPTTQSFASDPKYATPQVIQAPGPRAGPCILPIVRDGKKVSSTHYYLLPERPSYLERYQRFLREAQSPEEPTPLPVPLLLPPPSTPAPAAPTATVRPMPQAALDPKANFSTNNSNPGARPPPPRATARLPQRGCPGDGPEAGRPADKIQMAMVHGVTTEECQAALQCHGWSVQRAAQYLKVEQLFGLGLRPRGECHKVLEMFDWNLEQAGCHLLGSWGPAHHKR

[10] = molecular target: T2, Serine/threonine-protein kinase D2 (Homo sapiens) (UniProt Q9BZL6); experiment: Inhibition of PRKD2 (unknown origin) assessed as residual activity at 10 uM incubated for 1 hr by KinomeScan analysis relative to control
T2 sequence (whole entry): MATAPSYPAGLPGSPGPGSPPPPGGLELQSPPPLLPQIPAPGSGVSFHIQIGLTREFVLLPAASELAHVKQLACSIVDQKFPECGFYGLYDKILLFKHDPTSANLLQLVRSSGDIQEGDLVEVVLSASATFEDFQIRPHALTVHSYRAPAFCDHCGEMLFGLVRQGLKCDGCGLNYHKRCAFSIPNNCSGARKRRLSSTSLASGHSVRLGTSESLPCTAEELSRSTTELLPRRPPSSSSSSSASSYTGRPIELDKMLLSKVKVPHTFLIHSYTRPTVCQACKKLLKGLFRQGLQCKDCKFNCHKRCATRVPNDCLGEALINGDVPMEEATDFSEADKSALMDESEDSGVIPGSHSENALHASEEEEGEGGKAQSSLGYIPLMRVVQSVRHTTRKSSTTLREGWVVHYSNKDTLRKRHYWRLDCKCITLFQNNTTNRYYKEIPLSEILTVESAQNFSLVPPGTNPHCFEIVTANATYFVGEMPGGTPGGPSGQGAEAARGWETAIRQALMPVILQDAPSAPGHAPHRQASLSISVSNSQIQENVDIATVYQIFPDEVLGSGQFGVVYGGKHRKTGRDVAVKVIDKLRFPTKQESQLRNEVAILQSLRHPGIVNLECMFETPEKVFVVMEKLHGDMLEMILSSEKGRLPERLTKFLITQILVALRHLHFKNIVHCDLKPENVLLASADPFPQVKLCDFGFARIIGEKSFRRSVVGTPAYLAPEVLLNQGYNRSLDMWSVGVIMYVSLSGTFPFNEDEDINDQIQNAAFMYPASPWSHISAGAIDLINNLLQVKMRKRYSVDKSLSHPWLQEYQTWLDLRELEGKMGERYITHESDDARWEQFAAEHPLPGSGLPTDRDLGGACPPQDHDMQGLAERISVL

[11] = molecular target: T3, Myosin light chain kinase family member 4 (Homo sapiens) (UniProt Q86YV6); experiment: Inhibition of MYLK4 (unknown origin) assessed as residual activity at 10 uM incubated for 1 hr by KinomeScan analysis relative to control
T3 sequence (whole entry): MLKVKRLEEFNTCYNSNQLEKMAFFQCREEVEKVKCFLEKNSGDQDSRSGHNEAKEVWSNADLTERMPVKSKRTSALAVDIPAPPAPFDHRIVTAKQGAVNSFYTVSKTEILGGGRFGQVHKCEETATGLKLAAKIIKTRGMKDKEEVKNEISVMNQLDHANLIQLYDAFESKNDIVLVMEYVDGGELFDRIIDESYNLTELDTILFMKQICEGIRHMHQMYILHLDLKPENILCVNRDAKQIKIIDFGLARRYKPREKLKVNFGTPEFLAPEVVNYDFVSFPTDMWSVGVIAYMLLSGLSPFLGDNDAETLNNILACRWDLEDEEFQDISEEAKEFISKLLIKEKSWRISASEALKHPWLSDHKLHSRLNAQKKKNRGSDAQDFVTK

[12] = molecular target: Mast/stem cell growth factor receptor Kit (Homo sapiens) (UniProt P10721); experiment: Inhibition of c-KIT (unknown origin) assessed as residual activity at 10 uM incubated for 1 hr by KinomeScan analysis relative to control
Chain of Mast/stem cell growth factor receptor Kit (Homo sapiens) (P10721 whole entry): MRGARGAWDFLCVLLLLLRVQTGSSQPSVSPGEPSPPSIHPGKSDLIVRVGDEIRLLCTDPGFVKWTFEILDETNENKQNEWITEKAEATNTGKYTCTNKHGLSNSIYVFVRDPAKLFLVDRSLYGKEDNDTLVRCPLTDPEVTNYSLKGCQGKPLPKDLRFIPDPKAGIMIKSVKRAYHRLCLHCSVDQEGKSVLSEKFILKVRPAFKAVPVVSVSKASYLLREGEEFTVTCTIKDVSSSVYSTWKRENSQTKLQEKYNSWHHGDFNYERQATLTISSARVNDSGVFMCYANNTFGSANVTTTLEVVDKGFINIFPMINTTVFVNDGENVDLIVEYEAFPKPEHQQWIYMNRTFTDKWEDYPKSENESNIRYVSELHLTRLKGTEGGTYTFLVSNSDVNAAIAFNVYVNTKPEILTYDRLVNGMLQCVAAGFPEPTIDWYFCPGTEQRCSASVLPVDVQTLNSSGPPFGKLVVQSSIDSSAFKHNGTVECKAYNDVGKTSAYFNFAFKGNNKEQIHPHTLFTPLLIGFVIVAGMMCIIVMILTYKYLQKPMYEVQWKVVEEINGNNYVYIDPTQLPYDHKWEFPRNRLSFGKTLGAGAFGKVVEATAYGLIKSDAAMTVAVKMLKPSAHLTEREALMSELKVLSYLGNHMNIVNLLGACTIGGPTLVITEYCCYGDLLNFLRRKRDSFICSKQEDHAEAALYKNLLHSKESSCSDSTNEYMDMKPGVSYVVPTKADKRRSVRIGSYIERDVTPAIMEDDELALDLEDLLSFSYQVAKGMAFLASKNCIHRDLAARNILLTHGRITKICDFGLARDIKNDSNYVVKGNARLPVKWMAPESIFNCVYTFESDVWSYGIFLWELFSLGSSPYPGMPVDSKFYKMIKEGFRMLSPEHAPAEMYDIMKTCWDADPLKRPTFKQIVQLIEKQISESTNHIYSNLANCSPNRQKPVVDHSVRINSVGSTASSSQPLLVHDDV

[13] = tested on: MDA-MB-468; experiment: Cytotoxicity against human MDA-MB-468 cells assessed as inhibition of cell growth incubated for 72 hrs by MTS assay; format: functional, cell-based; details: MDA-MB-468, 72 h
[14] = Selectivity index, ratio of IC50 for cytotoxicity against HEK293 cells to IC50 for cytotoxicity against human MDA-MB-468 cells; format: toxicity, cell-based; details: HEK293 cells versus MDA-MB-468 cells, read-out: Ratio IC50
[15] = molecular target: Carbonic anhydrase 9 (Homo sapiens, UniProt Q16790); experiment: Inhibition of recombinant human carbonic anhydrase 9 assessed as inhibition constant incubated for 1 hr prior to testing by phenol red based stopped-flow CO2 hydration assay

Q: For `COc1ccc(CNC2=NS(=O)(=O)c3ccc(Cl)cc3N2)cc1`, which growth, % of control at 20 µM [1] is on record?
A: 132%

Q: With `O=S1(=O)N=C(NCc2ccc(C(F)(F)F)cc2)Nc2cc(Cl)ccc21` as the molecule, how does the growth, % of control at 20 µM [1] read?
A: 8.6%

Q: Which growth, % of control at 20 µM [1] does the source give for `O=S1(=O)N=C(NCCCCc2ccccc2)Nc2ccc(Cl)cc21` here?
A: 116%

Q: What about the IC50 at 72 h [2] of the same molecule?
A: 23.4 µM

Q: Which Ki [3] does the source give for `NS(=O)(=O)c1ccc(CCNC2=NS(=O)(=O)c3ccc(Cl)cc3N2)cc1` here?
A: 0.0501 µM

Q: And the Ki [4]?
A: 0.0088 µM

Q: What about the Ki [5] of the same molecule?
A: 0.0038 µM

Q: With `O=S1(=O)N=C(NCc2ccc(F)cc2)Nc2ccc(Cl)cc21` as the molecule, how does the growth, % of control at 20 µM [1] read?
A: 70.4%

Q: Which growth, % of control at 20 µM [1] does the source give for `O=S1(=O)NC(=S)Nc2ccc(F)cc21` here?
A: 50.1%

Q: With `COc1ccccc1CNC1=NS(=O)(=O)c2cc(F)ccc2N1` as the molecule, how does the growth, % of control at 20 µM [1] read?
A: 29.4%

Q: With `Cc1ccccc1CNC1=NS(=O)(=O)c2cc(Cl)ccc2N1` as the molecule, how does the growth, % of control at 20 µM [1] read?
A: 117%

Q: Which growth, % of control at 20 µM [1] does the source give for `CC(C)C(C)NC1=NS(=O)(=O)c2cc(F)ccc2N1` (configuration not stated) here?
A: 76.4%

Q: With `O=S1(=O)N=C(NCc2ccc(OC(F)(F)F)cc2)Nc2cc(Cl)ccc21` as the molecule, how does the growth, % of control at 20 µM [1] read?
A: 199%

Q: And the inhibition [6]?
A: Active

Q: What about the inhibition [7] of the same molecule?
A: 33%

Q: And the IC50 [8]?
A: 140 µM

Q: And the Activity [9]?
A: 0.1%

Q: And the Activity [10]?
A: 8%

Q: What about the Activity [11] of the same molecule?
A: 33%

Q: And the Activity [12]?
A: 32%

Q: What about the IC50 [13] of the same molecule?
A: 48 µM

Q: And the IC50 at 72 h [2]?
A: 77.2 µM

Q: What about the selectivity ratio [14] of the same molecule?
A: 1.6

Q: For `O=S1(=O)N=C(NCc2ccc(OC(F)(F)F)cc2)Nc2ccc(Br)cc21`, which growth, % of control at 20 µM [1] is on record?
A: 127%

Q: And the inhibition [6]?
A: Active

Q: What about the Ki [3] of the same molecule?
A: > 100 µM

Q: What about the Ki [4] of the same molecule?
A: > 100 µM

Q: And the Ki [15]?
A: > 100 µM

Q: And the Ki [5]?
A: > 100 µM

Q: What about the IC50 [13] of the same molecule?
A: 39.1 µM

Q: Which Ki [3] does the source give for `COc1ccc(CCNC2=NS(=O)(=O)c3cc(F)ccc3N2)cc1` here?
A: > 100 µM

Q: And the Ki [4]?
A: > 100 µM

Q: What about the Ki [15] of the same molecule?
A: > 100 µM

Q: What about the Ki [5] of the same molecule?
A: > 100 µM

Q: What does the source list for `O=S1(=O)N=C(NC2CCCC2)Nc2ccc(Cl)cc21`?
A: inhibition [6]: Active; IC50 [13]: 77 µM

Q: Which growth, % of control at 20 µM [1] does the source give for `O=S1(=O)N=C(NCCCc2ccccc2)Nc2ccc(Cl)cc21` here?
A: 91.6%

Q: What about the IC50 [13] of the same molecule?
A: 56.6 µM

Q: What about the IC50 at 72 h [2] of the same molecule?
A: 30.9 µM

Q: What about the selectivity ratio [14] of the same molecule?
A: 0.5

Q: With `CC(NC1=NS(=O)(=O)c2ccccc2N1)c1ccccc1` (configuration not stated) as the molecule, how does the growth, % of control at 20 µM [1] read?
A: 25.2%

Q: What about the inhibition [6] of the same molecule?
A: Active

Q: What about the IC50 [13] of the same molecule?
A: 58.5 µM

Q: For `O=S1(=O)N=C(NCc2ccc(F)cc2F)Nc2ccc(Cl)cc21`, which growth, % of control at 20 µM [1] is on record?
A: 133%

Q: What about the IC50 [13] of the same molecule?
A: 45.5 µM

Q: And the IC50 at 72 h [2]?
A: 58.9 µM

Q: And the selectivity ratio [14]?
A: 1.3

Q: Which growth, % of control at 20 µM [1] does the source give for `CC1=Nc2ccc(Cl)cc2S(=O)(=O)N1` [DIAZOXIDE] here?
A: 15.2%

Q: Which growth, % of control at 20 µM [1] does the source give for `O=S1(=O)N=C(NCCCc2ccccc2)Nc2ccccc21` here?
A: 53.6%

Q: With `O=S1(=O)N=C(NCc2ccncc2)Nc2ccc(Cl)cc21` as the molecule, how does the growth, % of control at 20 µM [1] read?
A: 66.8%

Q: What does the source list for `O=S1(=O)N=C(NCc2ccccc2OC(F)(F)F)Nc2cc(Cl)ccc21`?
A: growth, % of control at 20 µM [1]: 124%; IC50 [13]: 14.9 µM; IC50 at 72 h [2]: 30.5 µM; selectivity ratio [14]: 2

Q: Which growth, % of control at 20 µM [1] does the source give for `CSC1=NS(=O)(=O)c2ccc(Cl)cc2N1` here?
A: 20.9%

Q: Which growth, % of control at 20 µM [1] does the source give for `O=S1(=O)N=C(NCc2ccc(F)cc2F)Nc2cc(Cl)ccc21` here?
A: 172%

Q: What about the IC50 [13] of the same molecule?
A: 84.6 µM

Q: What about the IC50 at 72 h [2] of the same molecule?
A: 129 µM

Q: And the selectivity ratio [14]?
A: 1.5

Q: For `CCNC1=NS(=O)(=O)c2ccccc2N1`, which growth, % of control at 20 µM [1] is on record?
A: 88.4%

Q: For `COc1ccccc1CNC1=NS(=O)(=O)c2ccc(Cl)cc2N1`, which growth, % of control at 20 µM [1] is on record?
A: 83.9%

Q: With `Cc1ccccc1CNC1=NS(=O)(=O)c2ccc(Cl)cc2N1` as the molecule, how does the growth, % of control at 20 µM [1] read?
A: 112%
